Assay results taken from patent publication US8202910B2 (Sequella, Inc., priority 2006, dated 2012).
Converted amounts (≈) assume the structure as drawn. Where two headings read alike, the source gives them in different places.

Experiments:
[1] = tested on: H37Rv strain of Mycobacterium tuberculosis; assay: microbe, parasite or virus in culture; type: cell-based; conditions: Mycobacterium tuberculosis, H37RV; read-out: MIC
[2] = tested on: RIF^R M. tuberculosis isolate 2482; assay: microbe, parasite or virus in culture; type: cell-based; conditions: for concentration to which the strain was susceptible: strain 2482; for MIC (BACTEC): Strain 2482
M. tuberculosis H37Rv [3] = assay: MIC by BACTEC 460; type: cell-based, Mycobacterium tuberculosis; conditions: for MIC: Mycobacterium tuberculosis, H37RV, read-out: MIC (BACTEC)
[4] = tested on: RIF^R M. tuberculosis isolate 3185; assay: microbe, parasite or virus in culture; type: cell-based; conditions: for concentration to which the strain was susceptible: strain 3185
M. tuberculosis H37Rv [5] = assay: In vivo efficacy, mice infected i.v. with M. tuberculosis, CFU in spleen and lungs; parameters: species or system C57BL/6 mice
M. tuberculosis H37Rv [6] = assay: Standard chronic mouse model of tuberculosis, CFU in lung; type: in vivo, C57BL/6 female mice; conditions: RIF (20 mg/kg) by itself, 4 week therapy
[7] = tested on: M. tuberculosis H37Rv (Pasteur); assay: Rapid in vivo model of TB, body weight of infected mice; parameters: species or system C3H female mice; conditions: single drug alone (SQ109 10 mg/kg; RIF 2 mg/kg), by the 3 wk
wild type of M.tb = assay: MIC, secondary screening, wild type; type: cell-based, Mycobacterium tuberculosis; conditions: Mycobacterium tuberculosis, WT
[8] = Mycobacterium tuberculosis, read-out: MIC (BACTEC)

In the case of NNC(=O)c1ccncc1 [INH, Isoniazid], the MIC [1] is reported as 0.91 µM (≈ 0.125 µg/mL), the “concentration to which the strain was susceptible” value (from here on “concentration”) [2] is reported as 0.1 mg/L and the MIC (M. tuberculosis H37Rv [3]) is reported as 0.025 mg/L (≈ 0.182 µM). The “concentration” value [4] was 0.1 mg/L, the “activity in spleen and lung, rank among drugs” value (M. tuberculosis H37Rv [5]; INH 25 mg/kg) was “the most active drug in both spleen and lung” and the “decrease of load of bacteria in organs” value (M. tuberculosis H37Rv [5]; during 4-6 weeks of chemotherapy) was 2-3 logs.

CO[C@H]1/C=C/O[C@@]2(C)Oc3c(C)c(O)c4c(O)c(c(/C=N/N5CCN(C)CC5)c(O)c4c3C2=O)NC(=O)/C(C)=C\C=C\[C@H](C)[C@H](O)[C@@H](C)[C@@H](O)[C@@H](C)[C@H](OC(C)=O)[C@@H]1C [RIF, Rifampicin] was tested, and the CFU in lung (M. tuberculosis H37Rv [6]) was 5.8 log10, the average weight [7] was 19.7 g and the MIC [2, 8] was > 100 mg/L. The “MIC (BACTEC)” value ([2]; listed as Rifampicin) was > 100 mg/L, the “MIC (BACTEC)” value ([2]; listed as rifampicin) was > 100 mg/L and the “MIC (BACTEC)” value (M. tuberculosis H37Rv [3]; H37Rv) was 0.17 mg/L (≈ 0.207 µM). The MIC (M. tuberculosis H37Rv [3]) was 0.2 mg/L (≈ 0.243 µM), the MIC [4, 8] was 24 mg/L (≈ 29.2 µM) and the “MIC (BACTEC)” value ([4]; isolate 3185) was 24 mg/L (≈ 29.2 µM).

With CC1(C)C2CCC(CNCCNCC(c3ccccc3)c3ccccc3)[C@@H]1C2 (some centres unmarked) [RL 241] the MIC (wild type of M.tb; value in brackets, read-out: MIC (or uM)) was 3.34 µM and the MIC (wild type of M.tb; EMB, RL241, Cmpd#59 as 2HCl salt, Cmpd#109 as 2CF3COOH salt, read-out: MIC) was 1.5 mg/L.

In the case of [H]/N=C(/N)N[C@H]1[C@H](O)[C@@H](O)[C@H](O[C@@H]2O[C@@H](C)[C@](O)(C=O)[C@H]2O[C@@H]2O[C@@H](CO)[C@H](O)[C@@H](O)[C@@H]2NC)[C@@H](N/C(N)=N\[H])[C@@H]1O [SM, Streptomycin], the “concentration” value [2] is reported as 2 mg/L, the MIC (M. tuberculosis H37Rv [3]) is reported as 0.25 mg/L (≈ 0.43 µM) and the “concentration” value [4] is reported as 2 mg/L.
